{"source": "paper PMC10994195", "about": "(Journal of medicinal chemistry, 2024)", "key": {"FmlH": {"biological_target": "FmlH (Escherichia coli, UniProt A0A0H2V7F6)", "assay": "ELISA of FmlH lectin domain binding with TF antigen as competitive ligand", "design": "species or system uropathogenic Escherichia coli (UPEC)", "conditions": "for loss of activity relative to parent compound I: FmlH ELISA IC50 ratio"}, "Mouse pharmacokinetics": {"assay": "Mouse pharmacokinetics", "format": "in vivo, C3H/HeN mice", "conditions": "mice, PO"}, "[1]": {"assay": "In vivo pharmacokinetics in mice", "conditions": "mice plasma PK"}, "[2]": {"conditions": "rats; cited from earlier work"}, "[3]": {"conditions": "cited from earlier work"}}, "data": [{"smiles": "CC(=O)N[C@H]1[C@H](Oc2cccc(C(F)(F)F)c2-c2cccc(C(=O)NS(C)(=O)=O)c2)O[C@H](CO)[C@H](O)[C@@H]1O", "note": "[Compound 11]", "values": [{"measurement": "loss of activity relative to parent compound I", "setting": "FmlH", "value": "~ 10 fold"}]}, {"smiles": "CC(=O)N[C@H]1[C@H](Oc2cccc(C(F)(F)F)c2-c2cccc(CS(C)(=O)=O)c2)O[C@H](CO)[C@H](O)[C@@H]1O", "note": "[Compound 9]", "values": [{"measurement": "loss of activity relative to parent compound I", "setting": "FmlH", "value": "~ 10 fold"}]}, {"smiles": "CS(=O)(=O)Nc1cccc(-c2ccccc2C[C@@H]2O[C@H](CO)[C@H](O)[C@H](O)[C@H]2F)c1", "note": "[Compound 28]", "values": [{"measurement": "improvement of potency on replacing 2-position OH with F", "setting": "FmlH; FmlH ELISA, relative to 27", "value": 2, "unit": "fold"}]}, {"smiles": "CC(=O)N[C@H]1[C@H](Oc2cccc(C(F)(F)F)c2-c2ccc(F)cc2)O[C@H](CO)[C@H](O)[C@@H]1O", "note": "[Compound 69]", "values": [{"measurement": "urine concentration relative to FmlH IC50", "setting": "Mouse pharmacokinetics", "value": "over 300 fold"}, {"measurement": "urine concentration achieved", "setting": "Mouse pharmacokinetics; high urine concentration quoted in the conclusion", "value": 61, "unit": "µM"}, {"measurement": "AUC relative to 67", "setting": "[1]", "value": "~4", "unit": "fold"}]}, {"smiles": "CC(=O)N[C@H]1[C@H](Oc2cccc(C(F)(F)F)c2-c2cccc(NS(C)(=O)=O)c2)O[C@H](CO)[C@H](O)[C@@H]1O", "note": "[I]", "values": [{"measurement": "oral bioavailability (F)", "setting": "[2]", "value": "< 1", "unit": "%"}, {"measurement": "metabolic stability", "setting": "[3]; SGF, SIF, mouse liver microsomes, blood plasma", "value": "good metabolic stability"}, {"measurement": "stability in plasma and simulated gut and intestinal fluids", "setting": "[3]", "value": "good stability"}]}, {"smiles": "CS(=O)(=O)Nc1cccc(-c2ccccc2C[C@@H]2O[C@H](CO)[C@H](O)[C@H](O)[C@H]2[N+](=O)[O-])c1", "note": "[Compound 34]", "values": [{"measurement": "IC50", "setting": "FmlH; FmlH ELISA, average of four replicates", "value": "all activity against FmlH was eliminated"}]}]}
